“Also recorded” adds a separate entry of the source. Where a name gives a salt, the structure may show the parent alone. Read-outs that look alike come from different tables or passages of the source.
How the values were obtained:
[1] = system: IgG (hyperimmune antiserum) PCA reaction; assay: Oral activity in PCA test, IgG; type: in vivo; conditions: Rattus norvegicus
Description: (§1) The antiallergy property of the compounds of this invention is evaluated by the passive cutaneous anaphylaxis (PCA) test (Ovary, J. Immun., 81, 355, 1958). In the PCA test, normal animals are injected intradermally (i.d.) with antibodies contained in serum obtained from actively sensitized animals. The animals are then challenged intravenously with antigen mixed with a dye such as Evans' Blue. The increased capillary permeability caused by the antigen-antibody reaction causes the dye to leak from the site of the antibody injection. The test animals are then asphyxiated and the intensity of the reaction determined by measuring the diameter and intensity of the blue coloration on the inner surface of the animals' skin.
(§2) The ability of agents to interfere with PCA reactions is measured in male Charles River Wistar rats, 170-210 g. Reaginic antiserum, rich in IgE antibodies, is prepared according to Petillo et al., Int. Arch. Allergy, 44, 309 (1973). Hyperimmune antiserum rich in IgG antibodies to hen egg albumin is prepared according to Orange et al., J. Exptl. Med., 127, 767 (1968). Forty-eight hours prior to antigen challenge, the reaginic antiserum is injected intradermally (i.d.) into the shaved skin of a normal rat's back; 5 hours before challenge the hyperimmune antisera is similarly injected. At a third site 60 mcg. histamine dihydrochloride and 0.5 mcg. serotonin creatinine sulfate are injected i.d. just prior to antigen challenge as a check for antihistaminic, antiserotonin and unspecific types of blockage; the compounds of the instant invention or saline are then administered i.v. and immediately followed by the challenge of 5 mg. egg albumen and 2.5 mg. Evans' Blue dye in saline. In the case of oral administration Evans' Blue dye and egg albumin are given 5 minutes after administration of the drug. Thirty minutes later the animals are asphyxiated using chloroform and the skin of the back removed and reversed for observation. A score is assigned each injection site equal to the product of the diameter of the site in mm. and a grade of 0.1, 0.5, 1, 2, 3 or 4 proportional to intensity of dye coloration. The scores for a given injection site are summed for each group of five animals and compared to the saline treated controls. The difference is expressed as percent blockage due to the compound employed.
Compounds representative of those of the present invention are tested for antiallergy activity by the above-described procedure and the resulting activities are reported as the degree (%) of protection.

ethanol-induced ulcer = assay: Ethanol-induced rat ulcer assay; type: in vivo; conditions: oral, 5 mg./kg.; for % Inhibition in the Ethanol-Induced Rat Ulcer Assay, amides: Table III; for % Inhibition in the Ethanol-Induced Rat Ulcer Assay, acids: Table IV
Description: Alternatively, the effectiveness of the products of this invention as antiulcer agents is determined in an ethanol-induced rat ulcer assay. In this test, overnight fasted male rats are given drug (5 mg./kg.) or water orally fifteen minutes prior to an orally administered dose of absolute ethanol (1.0 ml.). One hour after the ethanol challenge the animals (8/group) are killed and the stomachs examined for the presence of lesions. All drugs were dissolved in dilute NaOH. After sacrifice the abdomen is opened and a locking hemostat placed at the pylorus. 6 ml. of a 4% solution of formaldehyde was injected into the stomach with a gastric feeding tube and a second locking hemostat was used to seal the esophagus. The stomach was removed, opened along the greater curvature and examined for ulceration.
The scoring system used to quantitate the ethanol-induced lesions is given below.
For each group of animals an ulcer index is calculated as follows:
Ulceration Index=(the sum of the scores of the group)×(the sum of the number of ulcers in the group)×(the fraction of the group having any incidence of ulceration).
The percentage inhibition of ulcers is calculated as follows:
% Inhibition=100×[(ulcer index controls)-(ulcer index drug-treated)].div.(ulcer index controls).

[2] = system: IgE (reaginic antiserum) PCA reaction; assay: Oral activity in PCA test, IgE; type: in vivo, rat; conditions: Rattus norvegicus, IgE, oral
Description: as §1
The PCA test is a measure of the anti-allergic (especially anti-asthmatic) activity of a compound. Compounds which inhibit a positive PCA test induced by the rat immunochemical counterpart of human immunoglobulin E (IgE), or reagin, are considered to have anti-allergic activity (C. Mota, Ann. N.Y. Acad. Sci., 103, 264 1963). (Reagin is primarily immunoglobulin E [IgE] and is the principal immunoglobulin responsible for allergic asthma, anaphylaxis, hay fever, food sensitivities and certain manifestations of drug sensitivities, although recent evidence ascribes to the IgG class of antibodies a significant role in the mediation of allergic diseases). Such compounds when administered to a sensitized subject, human or animal, prior to the time when the subject comes into contact with antigens or substances to which it is allergic, will prevent the allergic reaction which would otherwise occur. They, therefore, provide a method for the prophylactic treatment of allergy or anaphylactic reactions of a reagin mediated nature.
To put it another way, such compounds block the release of mediators resulting from the antigen-antibody (allergic) reaction as illustrated in the PCA test using rat homocytotropic antibody--a known correlate of human reaginic antibody. Inhibition of reaginic antigen-antibody reactions in rats, the test animal of the PCA test, is regarded as representative of inhibition of human reaginic antigen-antibody reactions which occur during allergic episodes.
as §2, with “employed. […]” for “employed.”

[3] = Oral absorption and plasma concentrations, rats; type: in vivo, rat; conditions: after oral administration of III
Description: (§3) This is supported by the observations of plasma concentrations of 3 to 7 μg/ml one hour after oral administration of III, 50 to 300 mg/kg.

[4] = Oral absorption and plasma concentrations, dogs; type: in vivo, dog; conditions: after oral administration of III
Description: as §3

[5] = Plasma levels after repeated daily dosing; type: in vivo; conditions: after the eighth daily dose of III
Description: as §3

allergic reactions = conditions: cited from earlier work
bronchi = conditions: Cox et al., Adv. in Drug Res., 5, 115 (1970); cited from earlier work
[6] = Water solubility and hygroscopicity; type: physicochemical
[7] = Table I amides, read-out: Oral Activity (% of Protection) in the PCA Test, IgG
[8] = Table I amides, read-out: Oral Activity (% of Protection) in the PCA Test, IgE
[9] = read-out: Oral Activity (% of Protection) in the PCA Test, IgG
[10] = read-out: Oral Activity (% of Protection) in the PCA Test, IgE
[11] = Table II acids, read-out: Oral Activity (% of Protection) of Acids in the PCA Test, IgG
[12] = Table II acids, read-out: Oral Activity (% of Protection) of Acids in the PCA Test, IgE

SMILES	% Inhibition in the Ethanol-Induced Rat Ulcer Assay, amides (ethanol-induced ulcer) [%]	% Inhibition in the Ethanol-Induced Rat Ulcer Assay, acids (ethanol-induced ulcer) [%]	inhibition in vivo at 30 mg/kg [1, 11] [%]	inhibition in vivo at 30 mg/kg [2, 12] [%]	also measured
O=C(Nc1nnn[nH]1)c1cnc2sc3c(n2c1=O)CCCCCC3 [Formula I: (CH2)6, N-(5-Tetrazolyl)-1-oxo-1H-cyclooctenothiazolo[3,2-a]pyrimidine-2-carboxamide]	45	–	–	–	inhibition in vivo at 30 mg/kg [1, 7]: 57%; inhibition in vivo at 30 mg/kg [2, 8]: 94%
CCc1sc2ncc(C(=O)Nc3nnn[nH]3)c(=O)n2c1CC [Formula I: R1=C2H5, R2=C2H5, N-(5-Tetrazolyl)-1-oxo-1H-6,7-diethylthiazolo[3,2-a]pyrimidine-2-carboxamid]	10	–	–	–	inhibition in vivo at 30 mg/kg [1, 7]: 49%; inhibition in vivo at 30 mg/kg [2, 8]: 62%
CCc1cn2c(=O)c(C(=O)Nc3nnn[nH]3)cnc2s1 [Formula I: R1=C2H5, R2=H, N-(5-Tetrazolyl)-1-oxo-1H-6-ethylthiazolo[3,2-a]pyrimidine-2-carboxamide]	86	–	–	–	inhibition in vivo at 30 mg/kg [1, 7]: 58%; inhibition in vivo at 30 mg/kg [2, 8]: 85%
Cc1sc2ncc(C(=O)Nc3nnn[nH]3)c(=O)n2c1C [Formula I: R1=CH3, R2=CH3, N-(5-Tetrazolyl)-1-oxo-1H-6,7-dimethylthiazolo[3,2-a]pyrimidine-2-carboxamide]	96	–	–	–	inhibition in vivo at 3 mg/kg [1, 9]: 51%; inhibition in vivo at 3 mg/kg [2, 10]: 55%
Cc1cn2c(=O)c(C(=O)Nc3nnn[nH]3)cnc2s1 [Formula I: R1=CH3, R2=H, N-(5-Tetrazolyl)-1-oxo-1H-6-methylthiazolo[3,2-a]pyrimidine-2-carboxamide]	72	–	–	–	inhibition in vivo at 30 mg/kg [1, 7]: 55%; inhibition in vivo at 30 mg/kg [2, 8]: 78%
Cc1csc2ncc(C(=O)Nc3nnn[nH]3)c(=O)n12 [Formula I: R1=H, R2=CH3, N-(5-Tetrazolyl)-1-oxo-1H-7-methylthiazolo[3,2-a]pyrimidine-2-carboxamide]	59	–	–	–	inhibition in vivo at 3 mg/kg [1, 9]: 50%; inhibition in vivo at 3 mg/kg [2, 10]: 55%
O=C(O)c1cnc2sc3c(n2c1=O)CCCC3 [Formula II: (CH2)4, 1-Oxo-1H-cyclohexenothiazolo[3,2-a]pyrimidine-2-carboxylic Acid]	–	21	–	–	inhibition in vivo at 10 mg/kg ([1]; 10 mg./kg., Table II acids, read-out: Oral Activity (% of Protection) of Acids in the PCA Test, IgG): 39%; plasma levels of carboxylic acid metabolite [3]: comparable to those of III; plasma levels of carboxylic acid metabolite [4]: comparable to those of III; inhibition in vivo at 10 mg/kg ([2]; 10 mg./kg., Table II acids, read-out: Oral Activity (% of Protection) of Acids in the PCA Test, IgE): 55%; levels after the eighth daily dose relative to initial dose [5]: 2 to 4 times
CCc1sc2ncc(C(=O)O)c(=O)n2c1CC [Formula II: R1=C2H5, R2=C2H5, 1-Oxo-1H-6,7-diethylthiazolo[3,2-a]pyrimidine-2-carboxylic Acid]	–	48	32	41	–
CCc1cn2c(=O)c(C(=O)O)cnc2s1 [Formula II: R1=C2H5, R2=H, 1-Oxo-1H-6-ethylthiazolo[3,2-a]pyrimidine-2-carboxylic Acid]	–	48	38	45	–
Cc1sc2ncc(C(=O)O)c(=O)n2c1C [Formula II: R1=CH3, R2=CH3, 1-Oxo-1H-6,7-dimethylthiazolo[3,2-a]pyrimidine-2-carboxylic Acid]	–	11	0	0	–
Cc1cn2c(=O)c(C(=O)O)cnc2s1 [Formula II: R1=CH3, R2=H, 1-Oxo-1H-6-methylthiazolo[3,2-a]pyrimidine-2-carboxylic Acid]	–	0	14	12	–
Cc1csc2ncc(C(=O)O)c(=O)n12 [Formula II: R1=H, R2=CH3, 1-Oxo-1H-7-methylthiazolo[3,2-a]pyrimidine-2-carboxylic acid]	–	27	19	18	–
O=C(O)c1cc(=O)c2c(OCC(O)COc3cccc4oc(C(=O)O)cc(=O)c34)cccc2o1 [Intal, 1,3-bis(2-carboxycromon-5-yloxy)-2-hydroxypropane]	–	–	–	–	activity by the oral route (allergic reactions): lacks efficacy by the oral route; also recorded: not active by the oral route; activity by the oral route (allergic reactions; listed as disodium cromoglycate): lack of oral efficacy; bronchodilator action (bronchi): not a bronchodilator
O=C(Nc1nnn[nH]1)c1cnc2sc3c(n2c1=O)CCCC3 [sodium salt (trihydrate), sodium N-(5-tetrazolyl)-1-oxo-1H-cyclohexenothiazolo[3,2-a]pyrimidine-2-carboxamide trihydrate]	–	–	–	–	hygroscopicity [6]: non-hygroscopic; water solubility [6]: good water solubility

From patent US4535081A, “Antiallergic and antiulcer 1-oxo-1H-thiazolo[3,2-a]pyrimidine-2-carboxamides and intermediates therefor” (Pfizer Inc., priority 1983, dated 1985)
